In patent publication US20080248008A1, “Inhibitors of Protein Kinase a Anchoring” (priority 2004, published 2008):
“Also recorded” adds a separate entry of the source.

What was measured:
[1] = target: T1, membrane localized RI in Jurkat T cells (Homo sapiens, UniProt P10644); assay: Immunofluorescence of RI localisation in Jurkat T cells; format: cell-based
T1 construct: endogenous in cells; host or cells: Jurkat T cells

[2] = target: T2, PKA-type II in lipid rafts of human peripheral blood T cells (Homo sapiens, UniProt P13861); assay: PKA type II content of lipid rafts from human T cells; format: cell-based; conditions: n=4
T2 construct: endogenous in cells; host or cells: human peripheral blood CD3+ T cells
Experimental: Lipid Raft Purification. Isolation of lipid rafts or glycolipid-enriched membrane microdomains was performed as described in detail elsewhere (Zhang, W. et al., 1998, Immunity 9:239-246). In brief, cells were homogenized in 1 ml ice-cold lysis buffer (50 mM Hepes, pH 7.4, 100 mM NaCl, 5 mM EDTA, […], 10 mM sodium pyrophosphate, 1 mM Na3VO4, 50 mM NaF, 1 mM PMSF, and protease inhibitors) by 10 pestle strokes in a Dounce homogenizer, loaded at the bottom of a 40-5% sucrose gradient and centrifuged at 200,000 g for 5 or 20 h. 80 μl or 0.4-ml fractions were collected from the top. The fractions were analysed by immunoblot analysis. LAT was used as a marker for lipid raft fractions.
Lipid rafts were purified from isolated human peripheral blood T cells treated with MEME3-Arg11 or SM3-Arg11 for 12 hours, followed by 10% PAGE and blotting onto a PVDF membrane and immunoblotting (FIG. 18, left panel). The PKA content was measured by densitometry of immunoblots (n=4). PKA type I in cells treated with 10 μM or 25 μM M3-Arg11 was reduced by 80% and 90%, respectively. The very weak signal observed after immunoblotting using antibodies against RIIα (data not shown) was measured by densitometry of the autoradiogram. The PKA-type II level was not reduced in lipid rafts from human peripheral blood T cells treated with MEME3-Arg11 (FIG. 18, right panel, n=4).

[3] = test system: mice with MAIDS; assay: T cell proliferative response after in vivo treatment of mice with murine AIDS; conditions: 75 mg/kg/day intraperitoneal, 10 days
Experimental: Rad-LS infected mice with MAIDS (10-12 weeks postinfection) were treated with MEME3-Arg11 in doses corresponding to those used for other bioactive peptides in studies in mice. Parenteral administration was accomplished by injecting intraperitoneally peptide formulated in PBS. Thus, MAIDS mice were injected with vehicle (phosphate buffered saline, PBS, Ctr.) or treated with MEME3-Arg11 in PBS (M3) by intraperitoneal injection (75 mg/kg/day administered once daily) for 10 days (left panel). In parallel, healthy, uninfected mice were injected with PBS (Ctr.) or MEME3-Arg11 in PBS (M3) (right panel). Subsequently, T cell proliferative responses were assessed in vitro in a mixed population of unsorted lymph node mononuclear cells from treated and untreated animals by [^3H]-thymidine incorporation. T cell activation was accomplished in all samples by cross-ligation of anti-CD3 (mAb 2C11; 4 µg/ml). Cells were cultured for 72 h during which MEME3-Arg11 was added back. [^3H]-thymidine was included for the last 4 hours.

[4] = target: T3, RII (Mus musculus, UniProt P12367); assay: R-overlay (solid-phase binding) of 32P-labelled RII on membrane-synthesized peptides; parameters: species or system murine
T3 construct: His tag; made in house; host or cells: E. coli BL21 (B121 [sic])
Experimental: Autospot Peptide Array. Peptide arrays were synthesized on cellulose paper by using an Autospot Robot ASP222 (ABiMED, Langenfeld, Germany) as described (Frank, R., 1992, Tetrahedron 48, 123-132) or Multipep automated peptide synthesizer (INTAVIS Bioanalytical Instruments AG, Koeln, Germany) as described (Frank, R., 1992, Tetrahedron 48, 123-132).
R-overlay. R-overlays were conducted as described, using ^32P-labeled recombinant murine RII (Hausken, Z. E., et al., 1998 in Protein Targeting Protocols, ed. Clegg, R. A. (Humana, Totowa, N.J.), Vol. 88, pp. 47-64) or recombinant bovine RI (A98S) or by cold RI-overlay where bound RIα was detected by Western blot. Cold RI-overlay was performed by incubating the membranes with 250 nM RI overnight at 4° C., then the membranes were washed five times in TBST for 5 min. Detection of RI was performed using an anti-RI rabbit polyclonal antibody (Santa Cruz) at a concentration of 0.2 μg/μl for 1 hour at 4° C. Then the membranes were washed five times for 5 minutes in PBS followed by incubation with HRP-conjugated anti-rabbit IgGs (1:5000) for 1 hour at 4° C. […]
Densitometric analysis. The densitometric analysis was performed using Scion Image (www.scioncorp.com) (Scion Coorperation, Mo., USA) or Quantity One version 4.5.0, (BioRad).

[5] = target: T4, RIα (Bos taurus, UniProt P00514); assay: Fluorescence polarization, dissociation constant for RI; format: binding, bovine; conditions: qualitative
T4 construct: made in house; host or cells: E. coli BL21 (B121 [sic])
Experimental: Fluorescence Polarization. FITC-labeled peptides (SynPep, San Diego) that were used for fluorescence polarization studies included MEME3 (LEQYANQLADQIIKEATEK(5-Carboxyfluorescein)-CONH2) and MEME3 scrambled peptide (IEKELAQQYQNADAITLEK(5-Carboxyfluorescein)-CONH2). Peptides (0.5 nM for RI experiments and 1 nM for RII experiments) were suspended to working dilutions in phosphate-buffered saline containing 5 μg/μl BSA, pH 7.0. Increasing concentrations of recombinant bovine RI wt or recombinant murine RII were added to a PBS solution and mixed with each FITC-labeled peptide. Each sample was incubated for 2.5 hours. Fluorescence polarization was measured on a Beacon 2000 (Panvera, Madison, Wis.), following the manufacturer's instructions. Saturation binding curves were generated with PRISM graphing software (GraphPad, San Diego). Dissociation constants (Kd) were calculated from the nonlinear regression curve from averages of minimum three individual experiments.
Protein expression and purification. Human RI, Bovine RI and N-terminal deletions thereof or murine RII was expressed in E. coli B121 by IPTG induction. The RI containing pellet was incubated in lysis buffer (10 mM MOPS, pH 6.5, 100 mM NaCl, 10 μM DTT added protease inhibitors) and sonicated (Branson Sonifier 250) for 1 minute in three intervals at 0° C. […]

T4 sequence (P00514 whole entry): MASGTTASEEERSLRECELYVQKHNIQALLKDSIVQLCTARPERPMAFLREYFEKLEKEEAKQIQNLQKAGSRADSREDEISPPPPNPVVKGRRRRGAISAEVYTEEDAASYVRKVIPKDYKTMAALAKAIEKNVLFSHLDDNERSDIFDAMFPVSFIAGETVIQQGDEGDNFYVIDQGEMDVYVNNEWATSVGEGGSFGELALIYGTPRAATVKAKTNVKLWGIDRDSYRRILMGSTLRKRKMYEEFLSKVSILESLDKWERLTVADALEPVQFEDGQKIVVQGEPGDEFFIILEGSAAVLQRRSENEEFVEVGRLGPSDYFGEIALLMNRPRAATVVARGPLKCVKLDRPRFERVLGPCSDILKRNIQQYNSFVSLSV
T3 sequence (P12367 whole entry): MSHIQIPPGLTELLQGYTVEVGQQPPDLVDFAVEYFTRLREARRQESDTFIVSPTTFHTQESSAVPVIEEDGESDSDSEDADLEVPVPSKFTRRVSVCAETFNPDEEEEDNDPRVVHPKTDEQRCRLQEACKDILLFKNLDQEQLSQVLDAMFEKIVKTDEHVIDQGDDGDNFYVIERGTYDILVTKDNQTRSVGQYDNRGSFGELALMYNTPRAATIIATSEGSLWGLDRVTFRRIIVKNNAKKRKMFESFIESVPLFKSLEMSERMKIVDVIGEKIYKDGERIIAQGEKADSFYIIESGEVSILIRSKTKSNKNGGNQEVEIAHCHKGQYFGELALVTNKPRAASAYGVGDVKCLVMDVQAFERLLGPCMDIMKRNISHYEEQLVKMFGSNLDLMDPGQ
T2 sequence (P13861 whole entry): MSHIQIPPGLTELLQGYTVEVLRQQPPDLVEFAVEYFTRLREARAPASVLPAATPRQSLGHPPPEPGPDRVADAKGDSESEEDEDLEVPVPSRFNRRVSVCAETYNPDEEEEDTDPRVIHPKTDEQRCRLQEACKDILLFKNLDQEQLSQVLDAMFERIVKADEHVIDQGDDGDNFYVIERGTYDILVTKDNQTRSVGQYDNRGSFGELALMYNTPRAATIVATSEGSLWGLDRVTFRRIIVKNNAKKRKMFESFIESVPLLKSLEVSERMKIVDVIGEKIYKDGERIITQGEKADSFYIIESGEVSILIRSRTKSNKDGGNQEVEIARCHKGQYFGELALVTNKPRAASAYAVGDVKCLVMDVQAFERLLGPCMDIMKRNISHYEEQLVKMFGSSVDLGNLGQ

LEQYANQLADQIIKEATERRRRRRRRRrr [MEME3-Arg11]
displacement of membrane localized RI ([1]; 1 μM): some displacement of RI from cell membrane
displacement of membrane localized RI ([1]; 5 μM): All membrane localized RI was displaced and was delocalised
PKA-type II level in lipid rafts [2]: not reduced
T cell responses to anti-CD3 ([3H]-thymidine) compared to infected, control-treated mice [3]: significant increase (p=0.013); also recorded: increased more than three-fold

CC[C@H](C)[C@H](NC(=O)[C@H](CCC(N)=O)NC(=O)[C@H](CC(=O)O)NC(=O)[C@H](C)NC(=O)[C@H](CC(C)C)NC(=O)[C@H](CCC(N)=O)NC(=O)[C@H](CC(N)=O)NC(=O)[C@H](C)NC(=O)[C@H](Cc1ccc(O)cc1)NC(=O)[C@H](CCC(N)=O)NC(=O)[C@H](CCC(=O)O)NC(=O)[C@@H](N)CC(C)C)C(=O)N[C@H](C(=O)N[C@@H](CCCCN)C(=O)N[C@@H](CCC(=O)O)C(=O)N[C@@H](C)C(=O)N[C@H](C(=O)N[C@@H](CCC(=O)O)C(=O)N[C@@H](CCCCNC(=O)c1ccc2c(c1)C(=O)OC21c2ccc(O)cc2Oc2cc(O)ccc21)C(N)=O)[C@@H](C)O)[C@@H](C)CC [MEME3]
affinity for RII compared to PDSM ([4]; densitometry of autoradiographs, lower): 0.5 times
competition of RII binding to an RII specific binding sequence ([4]; up to 100 μM peptide in solution): not able to compete the RII binding

IEKELAQQYQNADAITLE [SM3, scrambled MEME3 negative control peptide, reference compound]
interaction with RI subunit [5]: No RIα binding
interaction with RI subunit ([5]; listed as control peptide): did not interact with either R subunit
